According to patent US20090156467A1, “Thymic stromal lymphpoietin promoter and use therefor” (priority 2004, published 2009):

Key:
[1] = tested on: TA-Luc (control construct); test: TA-Luc control construct transient transfection luciferase reporter assay in LAD 2 cells; format: cell-based, human; conditions: A23187 500 ng/ml alone
Source text: (§1) A calcium ionophore alone was also able to stimulate TSLP promoter activity.

[2] = tested on: TSLP promoter (TSLP-Luc construct); test: TSLP-Luc transient transfection luciferase reporter assay in LAD 2 cells; format: cell-based, human; conditions: A23187 500 ng/ml alone
Source text: as §1

CNc1ccc2oc(C[C@H]3O[C@@]4(CC[C@H]3C)O[C@H]([C@H](C)C(=O)c3ccc[nH]3)[C@H](C)C[C@H]4C)nc2c1C(=O)O [A23187]
F/R luciferase activity, control construct TA-Luc [1]: 29.6 units of F/R luciferase activity | F/R luciferase activity, TSLP-Luc construct [2]: 171.0 units of F/R luciferase activity
